This is an account of results in patent US8940892B2, “Triazine derivatives for use in the treatment of malaria” (CSIR, priority 2009, dated 2015).

SMILES strings stand for the structures.

A short description of series [1]: Cytotoxicity SRB assay (HeLa). Type of series: cell-based. To be noted: human, HeLa cells, read-out: Cytotox SRB (HeLa) IC50.
For series [2], the system named is Plasmodium falciparum (FCR-3). The experiment in a line: Antimalarial activity against Plasmodium falciparum FCR-3. Format: cell-based. Conditions: FCR3, FCR-3 strain.
For series [3] the following is noted: in vivo; cited from earlier work.
The test system of series [4] is P. falciparum strains resistant to Pyr and CG. To be noted: even against strains highly resistant to other DHFR inhibitors; cited from earlier work.

The term IC50 denotes the concentration at which inhibition is half-maximal. Take `NC1=NC(c2ccccc2)N(CCCOc2ccc(Cl)c(Cl)c2)C(N)=N1` (stereo not shown) [No. 9]: the IC50 in series [1] came out at 33.5 µM; in series [2], 39.8 ± 10 nM.
As to `NC1=NC(c2ccc(C(F)(F)F)cc2)N(CCCOc2ccc(Cl)cc2)C(N)=N1` (stereo not shown) [No. 10], the figures for the IC50 in series [1] and in series [2] were 11 µM and 3370 ± 168 nM, respectively.
`NC1=NC(c2ccccc2)N(CCCOc2ccc(Cl)cc2)C(N)=N1` (stereo not shown) [No. 8]: the results for the IC50 in series [1] and in series [2] were 39 µM and 55 ± 10 nM, respectively.
The matching figures for `NC1=NC(c2ccccc2)N(CCCOc2ccccc2Cl)C(N)=N1` (stereo not shown) [No. 15]: 88.8 µM and 171 ± 27 nM.
Regarding `NC1=NC(c2ccc(F)cc2)N(CCCOc2ccc(Cl)c(Cl)c2)C(N)=N1` (stereo not shown) [No. 29], the IC50 in series [2] was 35800 ± 8970 nM.
As for `NC1=NC(c2ccccc2)N(CCc2ccc(Cl)c(Cl)c2)C(N)=N1` (stereo not shown) [No. 4], in series [2], 4770 ± 297 nM corresponded to half-maximal inhibition (IC50).
For the compound `NC1=NC(c2ccc(F)cc2F)N(CCCOc2ccc(Cl)cc2)C(N)=N1` (stereo not shown) [No. 38], the IC50 is 31.8 µM in series [1] and 163 ± 50 nM in series [2].
`NC1=NC(c2cccc(Cl)c2F)N(CCCOc2ccc(Cl)cc2)C(N)=N1` (stereo not shown) [No. 33]: the IC50 stood at 23 µM in series [1] and 679 ± 221 nM in series [2].
As to `NC1=NC(c2ccc(C(F)(F)F)cc2)N(CCCCCOc2ccc(Cl)cc2)C(N)=N1` (stereo not shown) [No. 44], half-maximal inhibition in series [2] (IC50) required 3980 ± 612 nM.
Turning to `NC1=NC(c2ccccc2)N(CCCOc2cccc(C(F)(F)F)c2)C(N)=N1` (stereo not shown) [No. 12], the IC50 is 14.2 µM in series [1] and 30.7 ± 10.2 nM in series [2].
As for `Cc1cccc(C2N=C(N)N=C(N)N2CCCOc2ccc(Cl)cc2)c1` (stereo not shown) [No. 41], in series [2], half-maximal inhibition (IC50) required 50 ± 40 nM.
Take `NC1=NC(c2ccc(C(F)(F)F)cc2)N(CCCOc2ccc(Cl)c(Cl)c2)C(N)=N1` (stereo not shown) [No. 25]: the results for the IC50 in series [1] and in series [2] were 13.1 µM and 4530 ± 631 nM, respectively.
`NC1=NC(c2ccccc2Cl)N(CCCCOc2ccc(Cl)c(Cl)c2)C(N)=N1` (stereo not shown) [No. 7] registered an IC50 in series [2] of 2570 ± 700 nM.
Take `NC1=NC(c2ccccc2)N(CCCOc2ccc(C(F)(F)F)cc2)C(N)=N1` (stereo not shown) [No. 17]: 44.4 ± 6.8 nM corresponded to half-maximal inhibition in series [2] (IC50).
In the case of `NC1=NC(c2ccccc2C(F)(F)F)N(CCCOc2ccc(Cl)c(Cl)c2)C(N)=N1` (stereo not shown) [No. 26], the IC50 in series [1] came out at 11.8 µM; in series [2], 3060 ± 42 nM.
Consider `COc1ccc(C2N=C(N)N=C(N)N2CCCOc2ccc(Cl)cc2)cc1` (stereo not shown) [No. 19], for which the figures for the concentration for half-maximal inhibition (IC50) in series [1] and in series [2] were 25 µM and 46 ± 17 nM, respectively.
Turning to `NC1=NC(c2ccccc2Cl)N(CCCOc2ccc(Cl)c(Cl)c2)C(N)=N1` (stereo not shown) [No. 31], the concentration for half-maximal inhibition (IC50) in series [1] amounted to 13.7 µM; in series [2], 8610 ± 998 nM.
`NC1=NC(c2ccccc2)N(CCCOc2ccc(Cl)cc2Cl)C(N)=N1` (stereo not shown) [No. 11]: the results for the IC50 in series [1] and in series [2] were 32.6 µM and 0.151 ± 0.079 nM, respectively.
For `NC1=NC(c2ccccc2F)N(CCCOc2ccc(Cl)c(Cl)c2)C(N)=N1` (stereo not shown) [No. 28], in that order: 29.5 µM and 337 ± 95 nM.
For `NC1=NC(c2ccccc2)N(CCOc2ccc(Cl)cc2)C(N)=N1` (stereo not shown) [No. 5], in series [2], inhibition was half-maximal at 4830 ± 689 nM (IC50).
With `NC1=NC(c2ccccc2)N(CCCOc2ccccc2F)C(N)=N1` (stereo not shown) [No. 14], the half-inhibitory concentration (IC50) in series [1] was found to be 67.6 µM; in series [2], 525 ± 76.2 nM.
Regarding `NC1=NC(c2ccccc2Cl)N(CCCOc2ccc(Cl)cc2)C(N)=N1` (stereo not shown) [No. 18], the IC50 in series [1] worked out at 15.7 µM; in series [2], 859 nM.
In the case of `NC1=NC(c2ccc(Cl)cc2)N(CCCOc2ccc(Cl)cc2)C(N)=N1` (stereo not shown) [No. 32], the IC50 came out at 15.6 µM in series [1] and 156 ± 129 nM in series [2].
For `NC1=NC(c2ccccc2F)N(CCCOc2ccc(Cl)cc2)C(N)=N1` (stereo not shown) [No. 23], the IC50 in series [1] was 52.2 µM; in series [2], 412 ± 80 nM.
The matching figures for `NC1=NC(c2cccc(Cl)c2)N(CCCOc2ccc(Cl)cc2)C(N)=N1` (stereo not shown) [No. 21]: 14.1 µM and 156 ± 12 nM.
For the compound `COc1cc(C)ccc1OCCCN1C(N)=NC(N)=NC1c1ccccc1` (stereo not shown) [No. 42], the IC50 in series [2] was 47 ± 10 nM.
The same measure, in the same setting: under `NC1=NC(c2ccccc2)N(CCOc2ccc(Cl)c(Cl)c2)C(N)=N1` (stereo not shown) [No. 6] stands 2120 ± 750 nM.
As for `NC1=NC(c2cccc(Cl)c2F)N(CCCOc2ccc(Cl)c(Cl)c2)C(N)=N1` (stereo not shown) [No. 35], the IC50 in series [1] turned out to be 13.6 µM; in series [2], 98 ± 5 nM.
In turn, `NC1=NC(c2ccccc2)N(Cc2ccc(Cl)c(Cl)c2)C(N)=N1` (stereo not shown) [No. 2] registered an IC50 in series [2] of 4320 ± 1190 nM.
`NC1=NC(c2ccc(F)cc2)N(CCCOc2ccc(Cl)cc2)C(N)=N1` (stereo not shown) [No. 22] displayed an IC50 in series [2] of 155 ± 48 nM.
Turning to `NC1=NC(c2ccc(Cl)cc2Cl)N(CCCOc2ccc(Cl)cc2)C(N)=N1` (stereo not shown) [No. 39], the IC50 in series [1] was found to be 12.1 µM; in series [2] it was 2510 ± 667 nM.
With `NC1=NC(c2ccc(Cl)c(F)c2)N(CCCOc2ccc(Cl)cc2)C(N)=N1` (stereo not shown) [No. 20], the IC50 is 13.7 µM in series [1] and 1590 nM in series [2].
In series [2], `NC1=NC(c2ccccc2)N(CCCOc2ccc(F)cc2)C(N)=N1` (stereo not shown) [No. 16] yielded an IC50 of 395 ± 109 nM.
In the case of `NC1=NC(c2ccc(Cl)c(F)c2)N(CCCOc2ccc(Cl)c(Cl)c2)C(N)=N1` (stereo not shown) [No. 30], the IC50 amounted to 14.5 µM in series [1] and 591 ± 77 nM in series [2].
In the case of `COc1ccc(OCCCN2C(N)=NC(N)=NC2c2ccccc2)cc1` (stereo not shown) [No. 13], the IC50 in series [1] is 253 µM; in series [2], 60.3 ± 8.7 nM.
For `COc1cccc(C2N=C(N)N=C(N)N2CCCOc2ccc(Cl)cc2)c1F` (stereo not shown) [No. 37], in that order: 33.3 µM and 77 ± 32 nM.
Consider `NC1=NC(c2ccc(SC(F)(F)F)cc2)N(CCCOc2ccc(Cl)cc2)C(N)=N1` (stereo not shown) [No. 36], for which 2390 ± 30 nM corresponded to half-maximal inhibition in series [2] (IC50).
As to `NC1=NC(c2ccccc2C(F)(F)F)N(CCCOc2ccc(Cl)cc2)C(N)=N1` (stereo not shown) [No. 24], the IC50 turned out to be 19 µM in series [1] and 3240 ± 451 nM in series [2].
Take `NC1=NC(c2ccc(Cl)cc2)N(CCCOc2ccc(Cl)c(Cl)c2)C(N)=N1` (stereo not shown) [No. 34]: the IC50 in series [1] was 13.4 µM; in series [2], 61 ± 36 nM.
Consider `NC1=NC(c2ccccc2)N(CCc2ccc(Cl)cc2)C(N)=N1` (stereo not shown) [No. 3], for which half-maximal inhibition in series [2] (IC50) required 7160 ± 626 nM.
As for `CC1(C)N=C(N)N=C(N)N1OCCCOc1cc(Cl)c(Cl)cc1Cl` [WR99210], in series [3], the “gastrointestinal (GI) tolerability” value was “unacceptable”. Further, the “effective concentration in vitro” value in series [4] was “nanomolar (nM) range”.
`NC1=NC(c2cc(Cl)ccc2Cl)N(CCCOc2ccc(Cl)cc2)C(N)=N1` (stereo not shown) [No. 27]: the IC50 in series [1] was determined as 10.9 µM; in series [2], 926 ± 128 nM.
In series [2], `NC1=NC(c2ccccc2)N(CCCOc2ccc(Br)cc2)C(N)=N1` (stereo not shown) [No. 43] yielded an IC50 of 24 ± 17 nM.
The same measure, in the same setting: to `NC1=NC(c2cccc(OC(F)(F)F)c2)N(CCCOc2ccc(Cl)cc2)C(N)=N1` (stereo not shown) [No. 40] belongs greater than 50000 nM.
The compound `CC1(C)N=C(N)N=C(N)N1c1ccc(Cl)cc1` [No. 1, Cycloguanil, reference compound] yielded an IC50 in series [2] of 8150 ± 4130 nM.
